Molecular target: T1, COX-2
T1 construct: gene PTGS2; COX Activity Assay Kit (Cayman); species inferred from usual Cayman COX-2 (human recombinant; ovine possible); docking used PDB 3LN1
Assay: COX peroxidase activity kit, TMPD oxidation at […] nm
Assay type: biochemical
Details: DMSO; triplicate

## O=C(C[C@H](O)C1(c2cccc(O)c2O)Oc2cccc3cccc(c23)O1)OC[C@H](O)CO [compound 1, (8S)-(22R)-2,3-dihydroxypropyl-3-(2-(2,3-dihydroxyphenyl)naphtho[1,8-de][1,3]dioxin-2-yl)-3-hydroxypropanoate]
  IC50: 0.3 µM

From publication PMC8619024, “COX Inhibitory and Cytotoxic Naphthoketal-Bearing Polyketides from Sparticola junci” (International Journal of Molecular Sciences, 2021)
